Data reported in publication PMC6095626, “Screening of the Pathogen Box for inhibitors with dual efficacy against Giardia lamblia and Cryptosporidium parvum” (PLoS Neglected Tropical Diseases, 2018).
Entries after “also recorded” stand apart in the source; their conditions may differ.

Assays:
[1] = test system: C. parvum (UGA1 Nluc expressing strain in HCT-8 cells); assay: microbe, parasite or virus in culture; assay type: cell-based, Cryptosporidium parvum; settings: for Crypto (10 uM) Mean % inhibition: initial Pathogen Box screen, single concentration 10 µM, inhibition compared to DMSO wells
Outline: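 HCT-8 monolayers grown 48 h to 90–100% confluence, treated with compound at 10 μM or serial dilutions, then infected with bleach-treated UGA1 Nluc C. parvum oocysts.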

[2] = test system: G. lamblia trophozoites (luciferase expressing, WBC6); assay: microbe, parasite or virus in culture; assay type: cell-based, Giardia lamblia; settings: for Giardia (16 uM) Mean % inhibition: initial Pathogen Box screen, single concentration 16 µM, inhibition compared to DMSO wells
Outline: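 Luciferase-expressing WBC6 trophozoites plated at 250,000 cells/mL, compounds added 1:1, incubated anaerobically (GasPak bags) at 37 °C for 24 h; viability read by bioluminescence, with duplicate plates counted on a MOXI Z cell counter. Metronidazole control serially diluted 1:2 from 40 μM.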

| SMILES | Crypto (10 uM) Mean % inhibition [1] | Giardia (16 uM) Mean % inhibition [2] | EC50 ([1]; Nluc C. parvum in HCT-8 cells, 48 hours, read-out: C. parvum EC50) [nM] | G. lamblia EC50 ([2]; luciferase expressing G. lamblia trophozoites, 24 hours, D-luciferin bioluminescence read-out) |
| --- | --- | --- | --- | --- |
| C[C@H]1COC2(CCN(c3nc(=O)c4cc(C(F)(F)F)cc([N+](=O)[O-])c4s3)CC2)O1 [MMV676603] | X* (Mean or standard deviation are negative but not significantly different from the control to be a growth promoter) | 77% | – | – |
| Cc1nc(-c2ccccn2)nc(NCCc2ccc(S(C)(=O)=O)cc2)c1Cl [MMV658993] | X* (Mean or standard deviation are negative but not significantly different from the control to be a growth promoter) | 11% | – | – |
| CC(=O)Nc1ccc(NC(=O)c2cc(-c3cc(Cl)ccc3O)n[nH]2)cc1 [MMV676380] | 34% | X* (Mean or standard deviation are negative but not significantly different from the control to be a growth promoter) | – | – |
| OC[C@H]1O[C@@H](n2c3ccc(Cl)cc3c3c(-c4cc5ccccc5o4)ncnc32)C(O)[C@H]1O (some centres unmarked) [MMV688921] | 51% | 5.44% | – | – |
| CCCn1c(CNc2ccccc2O)nc2ccccc21 [MMV676445] | X* (Mean or standard deviation are negative but not significantly different from the control to be a growth promoter) | 13% | – | – |
| Nc1ncnc2n[nH]c(Cc3cccc4ccccc34)c12 [MMV688469] | 57% | 9% | – | – |
| CCOC(=O)NC(=O)c1ccsc1NC(=O)c1nc2ccccc2s1 [MMV090930] | 59% | 18% | – | – |
| Cc1cc(Cl)c(S(=O)(=O)N2CCCC2)cc1OCC(=O)NC1CCCCC1 [MMV006833] | 70% | 17% | – | – |
| O=C(c1ccc(F)cc1)N(CCNc1ccccc1)c1ccccc1 [MMV676204] | 55% | 28% | – | – |
| Cc1ccc(S(=O)(=O)N2CCN(C(=O)c3cc(-c4ccccc4)n[nH]3)CC2)cc1 [MMV019742] | X* (Mean or standard deviation are negative but not significantly different from the control to be a growth promoter) | X* (Mean or standard deviation are negative but not significantly different from the control to be a growth promoter) | – | – |
| CCOc1ccccc1C(=O)Nc1cccc(-c2nc3ncccn3c2C)c1 [MMV019790] | X* (Mean or standard deviation are negative but not significantly different from the control to be a growth promoter) | X* (Mean or standard deviation are negative but not significantly different from the control to be a growth promoter) | – | – |
| c1ccc(Oc2ccc(-c3cc(N4CCNCC4)[nH]n3)cc2)cc1 [MMV687706] | X* (Mean or standard deviation are negative but not significantly different from the control to be a growth promoter) | 30% | – | – |
| COc1cc2ncnc(NC3CCN(Cc4ccccc4)CC3)c2cc1OC [MMV006741] | 45% | 35% | – | – |
| NCC(=O)N1CCn2c(nc(-c3ccccc3)c2Nc2ccc3c(c2)OCO3)C1 [MMV011691] | X* (Mean or standard deviation are negative but not significantly different from the control to be a growth promoter) | 20% | – | – |
| Cc1cccc(NC(=O)c2cc(S(=O)(=O)N(C)c3ccc(F)cc3)ccc2Cl)n1 [MMV676528] | 80% | X* (Mean or standard deviation are negative but not significantly different from the control to be a growth promoter) | – | – |
| COc1cccc(-c2cc3c(Nc4cccnc4)nccc3[nH]2)c1 [MMV392832] | 68% | 50% | – | – |
| NS(=O)(=O)c1cncc(-c2ccc3nccc(-c4cn[nH]c4)c3n2)c1 [MMV024101] | X* (Mean or standard deviation are negative but not significantly different from the control to be a growth promoter) | 14% | – | – |
| CCCS(=O)(=O)N1CCC(CO)(Cc2ccccc2C(F)(F)F)CC1 [MMV001059] | X* (Mean or standard deviation are negative but not significantly different from the control to be a growth promoter) | 10% | – | – |
| COc1cccc(-c2nc3c(N4CCCC4)cccc3n2CC2CCCN2)n1 (centres unmarked) [MMV687703] | 77% | 26% | – | – |
| CCCCc1ccc(C(=O)Nc2nccc3ccccc23)nc1 [MMV687254] | 77% | X* (Mean or standard deviation are negative but not significantly different from the control to be a growth promoter) | – | – |
| CC(=O)NCC1CN(c2ccc(-c3ccc(CO)cc3)c(F)c2)C(=O)O1 (centres unmarked) [MMV688508] | X* (Mean or standard deviation are negative but not significantly different from the control to be a growth promoter) | X* (Mean or standard deviation are negative but not significantly different from the control to be a growth promoter) | – | – |

| SMILES | Crypto (10 uM) Mean % inhibition [1] | Giardia (16 uM) Mean % inhibition [2] | EC50 ([1]; Nluc C. parvum in HCT-8 cells, 48 hours, read-out: C. parvum EC50) [nM] | G. lamblia EC50 ([2]; luciferase expressing G. lamblia trophozoites, 24 hours, D-luciferin bioluminescence read-out) |
| --- | --- | --- | --- | --- |
| CCC(NC(=O)c1ccccc1NC(=O)c1ccc(C)cc1)C(=O)OC (centres unmarked) [MMV019551] | 23% | 5.53% | – | – |
| CN1CCC(c2cc(-c3ccncc3)c(-c3ccc(F)cc3)[nH]2)CC1 [MMV688703] | 84% | 18% | – | – |
| COc1ccc(-c2cnc3ccc(NCc4ccc(S(N)(=O)=O)cc4)nn23)cn1 [MMV010545] | X* (Mean or standard deviation are negative but not significantly different from the control to be a growth promoter) | X* (Mean or standard deviation are negative but not significantly different from the control to be a growth promoter) | – | – |
| CCC(=O)Nc1ccccc1C(=O)Nc1ccccn1 [MMV202553] | 20% | 35% | – | – |
| COc1cc(C2=NCCN2)ccc1-n1cc(-c2cccc(C3=NCCN3)c2)nn1 [MMV688474] | X* (Mean or standard deviation are negative but not significantly different from the control to be a growth promoter) | 18% | – | – |
| CNC(=O)c1nn(C)c2c1C(C)(C)Cc1cnc(Nc3ccc(N4CCN(C)CC4)cc3)nc1-2 [MMV676602] | 85% | 94% | 310 | not effective; also recorded: not potent |
| COc1ccc(C2=NN(C3CCCCCC3)C(=O)C2(C)C)cc1OCCCCOc1ccc(-c2nn[nH]n2)cc1 [MMV690028] | 61% | 70% | – | – |
| Cc1ccc(Oc2ccc(NC(=O)CNc3ccccc3N3CCCC3=O)cc2)cc1 [MMV020512] | 80% | X* (Mean or standard deviation are negative but not significantly different from the control to be a growth promoter) | – | – |
| COc1ccc(C2(C(=O)Nc3ccc(Br)cc3)CCCC2)cc1 [MMV200748] | X* (Mean or standard deviation are negative but not significantly different from the control to be a growth promoter) | 29% | – | – |
| COc1ccc(C2CC(c3cccs3)=NN2C(=O)c2ccco2)cc1OC (centres unmarked) [MMV019234] | X* (Mean or standard deviation are negative but not significantly different from the control to be a growth promoter) | 20% | – | – |
| FC(F)(F)c1cccc(-c2nc3c(NCc4ccncc4)nccc3[nH]2)c1 [MMV032967] | 27% | 26% | – | – |
| CS(=O)(=O)N1CCC(CCn2nc(Cc3cccc4ccccc34)c3c(N)ncnc32)CC1 [MMV688470] | 80% | 23% | – | – |
| CC(C)(C)n1nc(-c2ccccc2)c2c(N)ncnc21 [MMV688548] | 94% | 63% | – | – |
| CC(C)(C)C(=O)N(CCCCCCN1C[C@H](O)[C@@H](O)[C@H](O)[C@H]1CO)C1CCCCCC1 [MMV688543] | X* (Mean or standard deviation are negative but not significantly different from the control to be a growth promoter) | X* (Mean or standard deviation are negative but not significantly different from the control to be a growth promoter) | – | – |
| CC(C)(C)c1cc(C(=O)N2CCN(c3nccnc3C#N)CC2)n(Cc2ccccc2)n1 [MMV023949] | 55% | 36% | – | – |
| CCc1nc2ccccc2n1CC(O)COc1cc(C)ccc1Cl (centres unmarked) [MMV676449] | 37% | 46% | – | – |
| COc1ccc(CN2CCOc3ccc(C(C)(O)CN(C)C)cc3C2)cc1C (centres unmarked) [MMV008439] | 68% | 35% | – | – |
| O=C(NCc1nnc2n1CCCCC2)c1ccc(-c2ccc(F)cc2)o1 [MMV688796] | 44% | 52% | – | – |
| Cc1ccc(S(=O)(=O)Nc2ccc(CN3CCN(C(=O)c4cccc(C#N)c4)CC3)cc2)cc1 [MMV689028] | 58% | 56% | – | – |
| Cc1nn(C(=O)Nc2cccc(C(F)(F)F)c2)c(C)c1Sc1ncccn1 [MMV688552] | X* (Mean or standard deviation are negative but not significantly different from the control to be a growth promoter) | X* (Mean or standard deviation are negative but not significantly different from the control to be a growth promoter) | – | – |
| c1ccc(-c2cc(N3CCCCC3)c3ccccc3n2)nc1 [MMV560185] | 47% | X* (Mean or standard deviation are negative but not significantly different from the control to be a growth promoter) | – | – |
